Assay results: ChEMBL document CHEMBL1133422, “The S-alkyl chain length as a determinant of the anti-leukemic activity of cysteine chloromethyl ketone compounds” (Bioorg Med Chem Lett, 2000)

Columns and labels:
[1] = test system: MOLT-3; assay: Anti-leukemic activity against Molt-3 (T-lineage ALL, human acute lymphoblastic leukemia) cell line.; format: functional, cell-based
[2] = test system: NALM-6; assay: Anti-leukemic activity against Nalm-6 (B-lineage ALL, human acute lymphoblastic leukemia) cell line.; format: functional, cell-based

Compound | IC50 [1] [µM] | IC50 [2] [µM]
CCCCCCCCCCCSC[C@H](NC(C)=O)C(=O)CCl | 3 | 1.7
CCCCCCCCCCCCCCCCCCCCSC[C@H](NC(C)=O)C(=O)CCl | > 100 | > 100
CCCCCSC[C@H](NC(C)=O)C(=O)CCl | 5.4 | 5.8
CCCCCCCCCCCCCCCCCCSC[C@H](NC(C)=O)C(=O)CCl | > 100 | > 100
CCCCCCSC[C@H](NC(C)=O)C(=O)CCl | 0.7 | 3.3
CCCCCCCSC[C@H](NC(C)=O)C(=O)CCl | 2.5 | 4.8
CCCCCCCCCCCCCCCCCCCCCCSC[C@H](NC(C)=O)C(=O)CCl | > 100 | > 100
CCCCCCCCCCSC[C@H](NC(C)=O)C(=O)CCl | 3.4 | 4.7
CSC[C@H](NC(C)=O)C(=O)CCl | 80.8 | 30.3
CCCSC[C@H](NC(C)=O)C(=O)CCl | 8 | 6.9
CCCCCCCCCCCCCSC[C@H](NC(C)=O)C(=O)CCl | > 100 | > 100
CCCCCCCCSC[C@H](NC(C)=O)C(=O)CCl | 4.1 | 5.6
CCCCCCCCCCCCCCCSC[C@H](NC(C)=O)C(=O)CCl | 8.6 | 8.9
CCCCCCCCCSC[C@H](NC(C)=O)C(=O)CCl | 6.7 | 7.3
CCCCSC[C@H](NC(C)=O)C(=O)CCl | 5.6 | 41.4
CCCCCCCCCCCCCCCCSC[C@H](NC(C)=O)C(=O)CCl | 17.3 | 16
CCCCCCCCCCCCCCSC[C@H](NC(C)=O)C(=O)CCl | 8.8 | 8.7
CCSC[C@H](NC(C)=O)C(=O)CCl | 99.9 | 52.8
